Remaining binding data for two molecules are collected here from paper PMC9856672, “SGC-CAMKK2-1: A Chemical Probe for CAMKK2” (Cells, 2023).

The target of experiment [1] is T1, MYLK (Homo sapiens, UniProt Q15746).
T1 construct: purchased Eurofins DiscoverX KINOMEscan
Briefly: KINOMEscan 1 μM, MYLK. Format: binding. The conditions noted are these: 1000 nM; Entrez MYLK; read-out: Percent Control. The text has this: (§1) Supplement cells-12-00287-s001.zip/File S2. KinomeScan data for the CAMKK2 probe and negative control.xlsx, sheet "SGC-CAMKK2-1" | column: Percent Control

The target of experiment [2] is T2, DAPK1 (Homo sapiens, UniProt P53355).
T2 construct: purchased Eurofins DiscoverX KINOMEscan
Briefly: KINOMEscan 1 μM, DAPK1. It is filed as binding. To be noted: 1000 nM; Entrez DAPK1; read-out: Percent Control.
Text: as §1

Experiment [3] deals with T3, ABL1(E255K)-phosphorylated (Homo sapiens, UniProt P00519, E255K).
T3 construct: purchased Eurofins DiscoverX KINOMEscan
Briefly: KINOMEscan 1 μM, ABL1(E255K)-phosphorylated. The conditions noted are these: 1000 nM; Entrez ABL1; read-out: Percent Control. Format: binding.
Text: as §1

Experiment [4] addresses T4, PIK3CA(Q546K) (Homo sapiens, UniProt P42336, Q546K).
T4 construct: purchased Eurofins DiscoverX KINOMEscan
Briefly: DiscoverX KINOMEscan binding assay at 1 μM, PIK3CA(Q546K). The conditions noted are these: Compound Concentration 1000 nM, read-out: Percent Control.
Text: as §1

Experiment [5] concerns the target T5, PFTAIRE2 (Homo sapiens, UniProt Q96Q40).
T5 construct: purchased Eurofins DiscoverX KINOMEscan
Briefly: DiscoverX KINOMEscan binding assay at 1 μM, PFTAIRE2. The conditions noted are these: PFTAIRE2 (CDK15); Compound Concentration 1000 nM; read-out: Percent Control.
Text: as §1

Experiment [6] deals with T6, EPHB3 (Homo sapiens, UniProt P54753).
T6 construct: purchased Eurofins DiscoverX KINOMEscan
Briefly: KINOMEscan 1 μM, EPHB3. It is filed as binding. The conditions noted are these: 1000 nM; Entrez EPHB3; read-out: Percent Control.
Text: as §1

Experiment [7] deals with T7, EPHA5 (Homo sapiens, UniProt P54756).
T7 construct: purchased Eurofins DiscoverX KINOMEscan
Briefly: KINOMEscan 1 μM, EPHA5. Format: binding. The conditions noted are these: 1000 nM; Entrez EPHA5; read-out: Percent Control.
Text: as §1

In experiment [8] the target is T8, CDC2L1 (Homo sapiens, UniProt P21127).
T8 construct: purchased Eurofins DiscoverX KINOMEscan
Briefly: KINOMEscan 1 μM, CDC2L1. Format: binding. To be noted: 1000 nM; Entrez CDK11B; read-out: Percent Control.
Text: as §1

Experiment [9] deals with T9, ERK2 (Homo sapiens, UniProt P28482).
T9 construct: purchased Eurofins DiscoverX KINOMEscan
Briefly: KINOMEscan 1 μM, ERK2. The conditions noted are these: 1000 nM; Entrez MAPK1; read-out: Percent Control. Format: binding.
Text: as §1

Experiment [10] deals with T10, EGFR(T790M) (Homo sapiens, UniProt P00533, T790M).
T10 construct: purchased Eurofins DiscoverX KINOMEscan
Briefly: KINOMEscan 1 μM, EGFR(T790M). It is filed as binding. To be noted: 1000 nM; Entrez EGFR; read-out: Percent Control.
Text: as §1

Experiment [11] addresses T11, BRSK2 (Homo sapiens, UniProt Q8IWQ3).
T11 construct: purchased Eurofins DiscoverX KINOMEscan
Briefly: KINOMEscan 1 μM, BRSK2. To be noted: 1000 nM; Entrez BRSK2; read-out: Percent Control. It is filed as binding.
Text: as §1

The target of experiment [12] is T12, PKN2 (Homo sapiens, UniProt Q16513).
T12 construct: purchased Eurofins DiscoverX KINOMEscan
Briefly: DiscoverX KINOMEscan binding assay at 1 μM, PKN2. To be noted: Compound Concentration 1000 nM, read-out: Percent Control.
Text: as §1

For experiment [13], the target named is T13, TNK1 (Homo sapiens, UniProt Q13470).
T13 construct: purchased Eurofins DiscoverX KINOMEscan
Briefly: DiscoverX KINOMEscan binding assay at 1 μM, TNK1. The conditions noted are these: Compound Concentration 1000 nM, read-out: Percent Control.
Text: as §1

Experiment [14] concerns the target T14, LYN (Homo sapiens, UniProt P07948).
T14 construct: purchased Eurofins DiscoverX KINOMEscan
Briefly: KINOMEscan binding assay at 1 μM, LYN. To be noted: Compound Concentration 1000 nM; read-out: Percent Control. From the text:
(§2) Supplement cells-12-00287-s001.zip/File S2. KinomeScan data for the CAMKK2 probe and negative control.xlsx, sheet "SGC-CAMKK2-1N" | column: Percent Control

Experiment [15] concerns the target T15, EGFR(G719S) (Homo sapiens, UniProt P00533, G719S).
T15 construct: purchased Eurofins DiscoverX KINOMEscan
Briefly: KINOMEscan binding assay at 1 μM, EGFR(G719S). To be noted: Compound Concentration 1000 nM; read-out: Percent Control.
Text: as §2

For experiment [16], the target named is T16, ERBB2 (Homo sapiens, UniProt P04626).
T16 construct: purchased Eurofins DiscoverX KINOMEscan
Briefly: KINOMEscan binding assay at 1 μM, ERBB2. To be noted: Compound Concentration 1000 nM; read-out: Percent Control.
Text: as §2

The target of experiment [17] is T17, DAPK2 (Homo sapiens, UniProt Q9UIK4).
T17 construct: purchased Eurofins DiscoverX KINOMEscan
Briefly: KINOMEscan at 1 μM, DAPK2. Format: binding. To be noted: 1000 nM, read-out: Percent Control.
Text: as §2

Experiment [18] addresses T18, MELK (Homo sapiens, UniProt Q14680).
T18 construct: purchased Eurofins DiscoverX KINOMEscan
Briefly: KINOMEscan at 1 μM, MELK. The conditions noted are these: 1000 nM, read-out: Percent Control. It is filed as binding.
Text: as §2

Experiment [19] has as its target T19, PIK3CA(E545K) (Homo sapiens, UniProt P42336, E545K).
T19 construct: purchased Eurofins DiscoverX KINOMEscan
Briefly: KINOMEscan at 1 μM, PIK3CA(E545K). Format: binding. The conditions noted are these: 1000 nM, read-out: Percent Control.
Text: as §2

Experiment [20] concerns the target T20, MEK3 (Homo sapiens, UniProt P46734).
T20 construct: purchased Eurofins DiscoverX KINOMEscan
Briefly: KINOMEscan at 1 μM, MEK3. It is filed as binding. To be noted: 1000 nM, read-out: Percent Control.
Text: as §2

In experiment [21] the target is T21, STK36 (Homo sapiens, UniProt Q9NRP7).
T21 construct: purchased Eurofins DiscoverX KINOMEscan
Briefly: KINOMEscan at 1 μM, STK36. Format: binding. To be noted: 1000 nM, read-out: Percent Control.
Text: as §2

For experiment [22], the target named is T22, CSNK1A1L (Homo sapiens, UniProt Q8N752).
T22 construct: purchased Eurofins DiscoverX KINOMEscan
Briefly: KINOMEscan at 1 μM, CSNK1A1L. Format: binding. To be noted: 1000 nM, read-out: Percent Control.
Text: as §2

Experiment [23] addresses T23, RET (Homo sapiens, UniProt P07949).
T23 construct: purchased Eurofins DiscoverX KINOMEscan
Briefly: KINOMEscan binding assay at 1 μM, RET. To be noted: Compound Concentration 1000 nM; read-out: Percent Control.
Text: as §2

Experiment [24] deals with T24, p38-beta (Homo sapiens, UniProt Q15759).
T24 construct: purchased Eurofins DiscoverX KINOMEscan
Briefly: KINOMEscan binding assay at 1 μM, p38-beta. The conditions noted are these: Compound Concentration 1000 nM; read-out: Percent Control.
Text: as §2

For experiment [25], the target named is T25, EPHA6 (Homo sapiens, UniProt Q9UF33).
T25 construct: purchased Eurofins DiscoverX KINOMEscan
Briefly: KINOMEscan binding assay at 1 μM, EPHA6. To be noted: Compound Concentration 1000 nM; read-out: Percent Control.
Text: as §2

Experiment [26] addresses T26, RSK1(Kin.Dom.1-N-terminal) (Homo sapiens, UniProt Q15418).
T26 construct: RSK1(Kin.Dom.1-N-terminal); purchased Eurofins DiscoverX KINOMEscan
Briefly: KINOMEscan at 1 μM, RSK1(Kin.Dom.1-N-terminal). Format: binding. The conditions noted are these: 1000 nM, read-out: Percent Control.
Text: as §2

Experiment [27] addresses T27, CSF1R-autoinhibited (Homo sapiens, UniProt P07333).
T27 construct: purchased Eurofins DiscoverX KINOMEscan
Briefly: KINOMEscan at 1 μM, CSF1R-autoinhibited. The conditions noted are these: 1000 nM, read-out: Percent Control. It is filed as binding.
Text: as §2

Experiment [28] addresses T28, DYRK1B (Homo sapiens, UniProt Q9Y463).
T28 construct: purchased Eurofins DiscoverX KINOMEscan
Briefly: KINOMEscan at 1 μM, DYRK1B. Format: binding. To be noted: 1000 nM, read-out: Percent Control.
Text: as §2

The target in experiment [29] is T29, TNNI3K (Homo sapiens, UniProt Q59H18).
T29 construct: purchased Eurofins DiscoverX KINOMEscan
Briefly: KINOMEscan at 1 μM, TNNI3K. It is filed as binding. The conditions noted are these: 1000 nM, read-out: Percent Control.
Text: as §2

Experiment [30] concerns the target T30, LKB1 (Homo sapiens, UniProt Q15831).
T30 construct: purchased Eurofins DiscoverX KINOMEscan
Briefly: KINOMEscan binding assay at 1 μM, LKB1. The conditions noted are these: Compound Concentration 1000 nM; read-out: Percent Control.
Text: as §2

Experiment [31] addresses T31, EGFR(G719C) (Homo sapiens, UniProt P00533, G719C).
T31 construct: purchased Eurofins DiscoverX KINOMEscan
Briefly: KINOMEscan binding assay at 1 μM, EGFR(G719C). To be noted: Compound Concentration 1000 nM; read-out: Percent Control.
Text: as §2

For experiment [32], the target named is T32, CDKL2 (Homo sapiens, UniProt Q92772).
T32 construct: purchased Eurofins DiscoverX KINOMEscan
Briefly: KINOMEscan at 1 μM, CDKL2. It is filed as binding. The conditions noted are these: 1000 nM, read-out: Percent Control.
Text: as §2

Experiment [33] concerns the target T33, JAK1(JH2domain-pseudokinase) (Homo sapiens, UniProt P23458).
T33 construct: JAK1(JH2domain-pseudokinase); purchased Eurofins DiscoverX KINOMEscan
Briefly: KINOMEscan at 1 μM, JAK1(JH2domain-pseudokinase). To be noted: 1000 nM, read-out: Percent Control. It is filed as binding.
Text: as §2

For experiment [34], the target named is T34, CLK1 (Homo sapiens, UniProt P49759).
T34 construct: purchased Eurofins DiscoverX KINOMEscan
Briefly: KINOMEscan at 1 μM, CLK1. It is filed as binding. To be noted: 1000 nM, read-out: Percent Control.
Text: as §2

SMILES strings stand for the structures.

T19 sequence (P42336 whole entry E545K): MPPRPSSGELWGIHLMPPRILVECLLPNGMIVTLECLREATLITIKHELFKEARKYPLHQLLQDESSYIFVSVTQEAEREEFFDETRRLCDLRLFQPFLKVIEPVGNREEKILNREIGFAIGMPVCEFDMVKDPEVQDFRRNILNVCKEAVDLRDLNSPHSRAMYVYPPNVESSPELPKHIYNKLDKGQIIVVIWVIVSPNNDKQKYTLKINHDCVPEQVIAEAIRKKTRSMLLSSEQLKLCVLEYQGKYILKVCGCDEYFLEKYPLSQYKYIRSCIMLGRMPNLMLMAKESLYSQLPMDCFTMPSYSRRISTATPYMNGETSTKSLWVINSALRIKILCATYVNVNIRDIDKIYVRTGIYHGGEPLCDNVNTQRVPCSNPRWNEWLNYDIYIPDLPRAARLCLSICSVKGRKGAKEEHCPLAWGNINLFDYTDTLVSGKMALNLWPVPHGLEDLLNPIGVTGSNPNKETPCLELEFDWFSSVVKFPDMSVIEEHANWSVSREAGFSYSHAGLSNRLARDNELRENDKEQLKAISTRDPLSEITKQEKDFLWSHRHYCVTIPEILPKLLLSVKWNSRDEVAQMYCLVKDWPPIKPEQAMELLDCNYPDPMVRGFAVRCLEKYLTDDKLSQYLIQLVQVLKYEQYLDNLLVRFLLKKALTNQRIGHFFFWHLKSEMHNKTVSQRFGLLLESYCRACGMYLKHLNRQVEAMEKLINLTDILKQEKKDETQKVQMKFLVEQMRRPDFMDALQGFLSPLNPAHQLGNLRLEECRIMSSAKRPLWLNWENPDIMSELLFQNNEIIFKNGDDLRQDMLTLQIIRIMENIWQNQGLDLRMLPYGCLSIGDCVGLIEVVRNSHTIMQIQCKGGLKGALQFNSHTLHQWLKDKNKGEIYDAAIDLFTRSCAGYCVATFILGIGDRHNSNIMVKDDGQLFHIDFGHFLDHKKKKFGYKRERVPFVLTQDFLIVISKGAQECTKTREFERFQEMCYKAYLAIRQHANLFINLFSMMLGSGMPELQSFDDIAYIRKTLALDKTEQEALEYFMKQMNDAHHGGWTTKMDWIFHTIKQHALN
T5 sequence (Q96Q40 whole entry): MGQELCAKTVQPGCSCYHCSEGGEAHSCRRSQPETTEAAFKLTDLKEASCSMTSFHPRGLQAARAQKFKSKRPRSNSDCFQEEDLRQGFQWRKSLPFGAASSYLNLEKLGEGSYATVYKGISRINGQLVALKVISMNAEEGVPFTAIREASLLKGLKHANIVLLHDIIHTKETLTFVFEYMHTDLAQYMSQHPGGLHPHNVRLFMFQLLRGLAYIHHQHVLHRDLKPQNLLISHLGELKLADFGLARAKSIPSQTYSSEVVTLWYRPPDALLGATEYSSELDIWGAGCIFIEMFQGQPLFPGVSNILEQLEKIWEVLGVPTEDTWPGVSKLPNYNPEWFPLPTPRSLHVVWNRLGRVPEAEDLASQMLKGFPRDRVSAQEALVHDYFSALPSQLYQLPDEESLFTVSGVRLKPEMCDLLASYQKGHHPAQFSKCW
T10 sequence (P00533 25-1210 T790M): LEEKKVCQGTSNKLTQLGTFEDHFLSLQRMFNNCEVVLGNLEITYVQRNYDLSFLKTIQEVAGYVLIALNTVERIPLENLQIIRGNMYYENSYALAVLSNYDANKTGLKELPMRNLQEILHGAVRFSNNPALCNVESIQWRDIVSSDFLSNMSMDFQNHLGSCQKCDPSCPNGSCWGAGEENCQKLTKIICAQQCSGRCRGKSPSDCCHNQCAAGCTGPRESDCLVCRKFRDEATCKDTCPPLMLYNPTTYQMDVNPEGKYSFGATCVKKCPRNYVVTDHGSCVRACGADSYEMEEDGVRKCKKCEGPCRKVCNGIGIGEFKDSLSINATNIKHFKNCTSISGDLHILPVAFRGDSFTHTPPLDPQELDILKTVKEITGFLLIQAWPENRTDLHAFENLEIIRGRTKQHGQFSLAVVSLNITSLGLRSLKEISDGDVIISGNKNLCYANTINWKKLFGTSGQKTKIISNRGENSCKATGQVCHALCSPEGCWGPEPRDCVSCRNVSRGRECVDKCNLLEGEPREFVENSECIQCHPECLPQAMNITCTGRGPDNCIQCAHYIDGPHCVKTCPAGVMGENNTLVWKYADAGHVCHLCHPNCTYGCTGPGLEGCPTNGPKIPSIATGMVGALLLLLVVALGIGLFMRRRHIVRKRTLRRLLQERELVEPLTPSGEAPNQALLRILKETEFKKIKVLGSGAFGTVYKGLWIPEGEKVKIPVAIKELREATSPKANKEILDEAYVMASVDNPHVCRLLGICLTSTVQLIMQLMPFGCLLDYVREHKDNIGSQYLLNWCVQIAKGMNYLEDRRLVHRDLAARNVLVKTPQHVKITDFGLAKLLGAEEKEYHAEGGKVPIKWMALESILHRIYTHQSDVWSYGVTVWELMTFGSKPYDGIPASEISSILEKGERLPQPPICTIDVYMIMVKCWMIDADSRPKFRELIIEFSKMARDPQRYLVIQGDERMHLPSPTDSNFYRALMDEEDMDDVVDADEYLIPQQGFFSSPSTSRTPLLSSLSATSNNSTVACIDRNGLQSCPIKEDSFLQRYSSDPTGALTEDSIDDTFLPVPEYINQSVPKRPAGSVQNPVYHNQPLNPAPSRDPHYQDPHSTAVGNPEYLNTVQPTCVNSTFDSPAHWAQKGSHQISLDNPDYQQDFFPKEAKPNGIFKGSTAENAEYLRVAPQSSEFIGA
T13 sequence (Q13470 whole entry): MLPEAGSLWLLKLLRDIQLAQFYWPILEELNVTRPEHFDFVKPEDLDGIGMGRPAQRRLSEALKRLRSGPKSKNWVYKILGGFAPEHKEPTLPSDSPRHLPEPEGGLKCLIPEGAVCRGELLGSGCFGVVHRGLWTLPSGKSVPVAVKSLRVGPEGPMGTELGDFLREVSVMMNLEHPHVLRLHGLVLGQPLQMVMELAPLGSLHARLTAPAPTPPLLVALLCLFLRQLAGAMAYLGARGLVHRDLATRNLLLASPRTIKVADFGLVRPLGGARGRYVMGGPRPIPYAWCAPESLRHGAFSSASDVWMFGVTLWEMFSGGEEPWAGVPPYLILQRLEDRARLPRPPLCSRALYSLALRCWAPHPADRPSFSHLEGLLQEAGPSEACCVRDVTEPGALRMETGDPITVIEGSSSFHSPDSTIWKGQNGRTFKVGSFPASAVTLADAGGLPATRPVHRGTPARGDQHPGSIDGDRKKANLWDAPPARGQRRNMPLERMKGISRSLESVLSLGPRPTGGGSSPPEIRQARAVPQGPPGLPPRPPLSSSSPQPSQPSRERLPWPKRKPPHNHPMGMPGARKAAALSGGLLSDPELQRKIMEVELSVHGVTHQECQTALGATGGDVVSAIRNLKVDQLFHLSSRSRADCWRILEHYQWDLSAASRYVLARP
T23 sequence (P07949 29-1114): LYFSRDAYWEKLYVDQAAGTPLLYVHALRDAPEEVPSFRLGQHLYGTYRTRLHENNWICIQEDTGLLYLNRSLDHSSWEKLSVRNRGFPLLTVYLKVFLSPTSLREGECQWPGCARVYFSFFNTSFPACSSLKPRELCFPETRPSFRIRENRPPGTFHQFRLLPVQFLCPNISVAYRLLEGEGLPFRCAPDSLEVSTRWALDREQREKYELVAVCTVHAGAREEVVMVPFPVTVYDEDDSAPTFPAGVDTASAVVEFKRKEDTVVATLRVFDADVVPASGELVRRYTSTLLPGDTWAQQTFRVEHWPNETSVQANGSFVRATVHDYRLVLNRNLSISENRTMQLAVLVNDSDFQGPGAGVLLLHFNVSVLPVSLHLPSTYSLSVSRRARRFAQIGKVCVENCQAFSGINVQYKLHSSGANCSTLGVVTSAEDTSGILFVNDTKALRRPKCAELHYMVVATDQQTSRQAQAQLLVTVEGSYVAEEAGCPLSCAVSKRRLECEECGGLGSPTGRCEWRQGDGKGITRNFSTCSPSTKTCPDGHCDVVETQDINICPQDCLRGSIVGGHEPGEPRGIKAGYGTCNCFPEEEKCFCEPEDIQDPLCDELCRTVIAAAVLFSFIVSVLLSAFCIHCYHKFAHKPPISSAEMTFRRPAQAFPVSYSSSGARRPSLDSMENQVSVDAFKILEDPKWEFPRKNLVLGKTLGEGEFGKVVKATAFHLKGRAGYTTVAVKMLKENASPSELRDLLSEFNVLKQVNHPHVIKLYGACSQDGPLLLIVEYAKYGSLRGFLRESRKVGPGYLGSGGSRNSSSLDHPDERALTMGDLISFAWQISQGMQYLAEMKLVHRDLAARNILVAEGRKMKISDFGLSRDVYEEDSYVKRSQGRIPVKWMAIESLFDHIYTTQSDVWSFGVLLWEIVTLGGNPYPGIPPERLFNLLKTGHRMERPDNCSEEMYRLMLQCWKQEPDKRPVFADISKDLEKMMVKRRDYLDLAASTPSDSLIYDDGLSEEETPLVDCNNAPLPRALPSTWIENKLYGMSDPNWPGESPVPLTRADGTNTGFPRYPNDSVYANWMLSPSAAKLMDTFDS
T33 sequence (P23458 583-855 limits assumed): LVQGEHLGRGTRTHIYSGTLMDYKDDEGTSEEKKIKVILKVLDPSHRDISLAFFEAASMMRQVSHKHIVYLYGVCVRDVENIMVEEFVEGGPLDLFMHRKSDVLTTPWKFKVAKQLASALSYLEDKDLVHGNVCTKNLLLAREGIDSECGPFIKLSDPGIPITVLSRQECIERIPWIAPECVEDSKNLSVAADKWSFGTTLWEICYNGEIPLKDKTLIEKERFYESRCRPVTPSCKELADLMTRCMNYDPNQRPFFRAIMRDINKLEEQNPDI
T20 sequence (P46734 whole entry): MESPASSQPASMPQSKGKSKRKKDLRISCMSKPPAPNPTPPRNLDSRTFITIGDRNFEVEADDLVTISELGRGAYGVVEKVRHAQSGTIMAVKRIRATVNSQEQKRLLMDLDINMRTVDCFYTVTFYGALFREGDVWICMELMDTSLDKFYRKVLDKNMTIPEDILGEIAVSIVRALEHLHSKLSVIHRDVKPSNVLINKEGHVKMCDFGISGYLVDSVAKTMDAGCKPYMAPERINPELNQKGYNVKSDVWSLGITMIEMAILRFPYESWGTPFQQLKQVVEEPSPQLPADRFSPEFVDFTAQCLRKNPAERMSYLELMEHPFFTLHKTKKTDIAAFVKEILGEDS

Turning to `Cc1cccc(-c2cnc3occ(-c4ccc(C(=O)O)c(C5CCCC5)c4)c3c2)c1` [SGC-CAMKK2-1 (YL-36)], the remaining binding at 1 µM is 76% in experiment [1]; 100% in [2]; 98% in [3]; 100% in experiment [4]; 100% in experiment [5]; 96% in experiment [6]. Moreover, the remaining binding at 1 µM in experiment [7] came to 100%; in experiment [8], 93%; in experiment [9], 81%; in experiment [10], 100%; in experiment [11], 100%; in [12], 100%. In experiment [13], the remaining binding at 1 µM turned out to be 100%.
For `O=C(O)c1ccc(-c2coc3ncc(-c4ccccc4)cc23)cc1Cl` [SGC-CAMKK2-1N (UNC-YL-83)], the remaining binding at 1 µM came out at 100% in experiment [14]; 100% in [15]; 100% in [16]; 70% in experiment [17]; 88% in experiment [18]; 93% in experiment [19]. Moreover, the remaining binding at 1 µM in experiment [20] was 89%; in experiment [21], 75%; in [22], 99%; in experiment [23], 100%; in experiment [24] it was 100%; in experiment [25], 100%. In addition, the remaining binding at 1 µM in [26] is 99%; in experiment [27], 89%; in experiment [28], 94%; in experiment [29], 95%; in [30] it was 100%; in experiment [31] it was 100%. In addition, the remaining binding at 1 µM in experiment [32] is 74%; in [33] it was 80%; in experiment [34], 79%.
